This is an account of results in paper PMC5599605, “Production and Characteristics of a Novel Xylose- and Alkali-tolerant GH 43 β-xylosidase from Penicillium oxalicum for Promoting Hemicellulose Degradation” (Scientific Reports, 2017).

Series [1] concerns the target T1, Xyl43 (Penicillium oxalicum, UniProt S7ZRR2).
T1 construct: gene PDE_06306; full-length, 348 residues, no native signal peptide; alpha-factor secretion signal, C-terminal His6 tag kept; Pichia pastoris X-33 (pPICZalphaA)
The series is described as follows: pNPX hydrolysis, residual activity. Format: biochemical. Conditions: pNPX 1 mg/ml, pH 7.0, 50 °C, 30 min; D or L not stated.

Series [2] concerns the target T1, Xyl43. In words: pNPX hydrolysis, Dixon plot. Format: biochemical. Conditions: substrate pNPX 0.5 and 1 mg/ml, pH 7.0, 50 °C; end product; described as uncompetitive; Table 1 prints 28.9.
Substrate in series [3]: O=[N+]([O-])c1ccc(O[C@@H]2OC[C@@H](O)[C@H](O)[C@H]2O)cc1
In words: p-nitrophenol release, Lineweaver-Burk plot. Format: biochemical, Penicillium oxalicum. Particulars: pH 7.0, 50 °C, 5 min, no xylose.

Turning to `OC1OC[C@H](O)[C@H](O)[C@H]1O` (stereo partly drawn) [arabinose], the “% of initial activity at 20 mM” value at Xyl43 [1] turned out to be 88.7%.

`OC1OC[C@@H](O)[C@H](O)[C@H]1O` (stereo partly drawn) [xylose] yielded an inhibition constant Ki on Xyl43 [2] of 28.1 mM. This counts as millimolar.

B1: Xyl43 (Penicillium oxalicum 114-2) (protein)
chain: MSSSTSSAPRPDPKPLVTHLYTADPSAHVFNNKIYIYPSHDRETDIAFNDNGDQYDMTDYHVFSMDAIDGPVTDSGVVLSAADVPWVSKQMWAPDAATKNGKYYLFFPARDHEGIFRIGVAVSDSPMGPFAPEKSYIPGSYSIDPAVFVDTDDSAYLYFGGIWGGQLQCWERADGSASASADPQMNGLVFNKSKSGPQEPSGAGVPALCPRVGQLSDDMLTFVSPPRELQILAPETGEPLAADDHERRFFEAAWMHKYKGKYYFSYSTGDSHYLVYATGDSPWGPFTYQGRILEPVLGWTTHHSIVEFQGKWYLFYHDCELSKGVDHLRSVKVREIVYDEEDKIHLA
notes: full-length, 348 residues, no native signal peptide; alpha-factor secretion signal, C-terminal His6 tag kept; Pichia pastoris X-33 (pPICZalphaA)
With B1, the Km in series [3] was 4.05 mM.

One may read the Ki as a measure of affinity in units of concentration, obtained from inhibition or displacement. A word on the Km: it is the concentration of substrate that gives half-maximal velocity.
